# Literature values in patent US4316892A, “2,6-C-Dimethyltyrosine^1 -D-amino acid^2 -ε-amino caproic and γ aminobutyric acid^5 derivatives of methionine enkephalin” (G. D. Searle & Co., priority 1980, dated 1982).
# Tests used:
# brain opiate receptor = conditions: partially purified brain opiate receptor; Bradbury et al.
# [1] = bioassays for opiate activity
# [2] = injected directly into the brain of the rat; Belluzi et al.
substance,measurement,setting,value
methionine enkephalin,binding to brain opiate receptor sites,brain opiate receptor,binds stereospecifically
same,opiate activity,[1],highly active
same,analgesic activity,[2],"weak, fleeting analgesic activity"
